pIC50: −log10 of the molar value.
What was measured:
MCF-10A cells = experiment: Inhibitory effects on the proliferation of MCF-10A cells (CCK8); assay type: cell-based; details: 6 days
Description: Experimental Example 2: Experiment of Inhibitory Effects on the Proliferation of MCF-10A Cells
MCF-10A cells (Cobioer Bio. #CBP60419MCF) were diluted with complete medium (Cobioer Bio. #CBP60419), seeded in 96-well plate (Corning #3599) at 500 cells/well, and then cultured for 24 h. Then, gradiently diluted compounds were added (starting at a final concentration of 10 μM, 3-fold dilution, 9 dose concentrations), and the final volume was adjusted to 100 μL/well. The plate was incubated at 37° C. under 5% CO2 for 6 days. After the cultivation was completed, CCK8 reagent (Signalway Antibody Bio. #CP002) was added at 10 μL/well, and then the plate was further incubated at 37° C. under 5% CO2 for 2-3 hours. The OD450 nm value was obtained by a microplate reader.
The results are shown in the MCF-OA IC50 column in Table 2.

T47D cells = experiment: Inhibitory effects on the proliferation of T47D cells (CellTiter-Glo); assay type: cell-based; details: 7 days
Description: Experimental Example 3: Experiment of Inhibitory Effects on the Proliferation of T47D Cells
T47D cells (ATCC. #HTB-133) were diluted with RPMI 1640 (Gibco #22400-089) containing 10% FBS (Hyclone #SH30084.03), seeded in 96-well plate (Biosharp #BS-MP-96W) at 1000 cells/well, and then cultured for 24 h. Then, gradiently diluted compounds were added (starting at a final concentration of 10 μM, 3-fold dilution, 9 dose concentrations), and the final volume was adjusted to 150 μL/well. The plate was incubated at 37° C. under […] for 7 days. After the cultivation was completed, CellTiter-Glo reagent (Promega #G7573) was added at 75 μL/well, and then the plate was further incubated at 25° C. for 10 min. After that, the chemiluminescence value was read using an instrument.
The results are shown in the T47D IC50 column in Table 2.

[1] = molecular target: PI3Kα[WT]/[E542K]/[E545K]/[H1047R]/PI3Kβ/γ/δ; experiment: PI3K enzyme activity assay (ADP-Glo); assay type: biochemical; details: PI3K kinase reaction, isoform not given
Description: Experimental Example 1: PI3Kα[WT]/[E542K]/[E545K]/[H1047R]/PI3Kβ/γ/δ Enzyme Activity Assay
PI3Kα[WT], PI3Kα[E542K], PI3Kα[E545K], PI3Kα[H1047R], PI3Kβ, PI3Kγ and PI3Kδ kinase reaction was performed in 384-well plate (PerkinElmer, #6008280), with a reaction system of 4 μL. PI3Kα[WT] enzyme solution (Promega, #V1721) or PI3Kα[E542K] enzyme solution (CarnaBio, #11-413-20N) or PI3Kα[E545K] enzyme solution (CarnaBio, #11-414-20N) or PI3Kα[H1047R] enzyme solution (Promega, #V1741) or PI3Kβ enzyme solution (Promega, #V1751) or PI3Kγ enzyme solution (ThermoFisher, #PV4786) or PI3Kδ enzyme solution (ThermoFisher, #PV6451) were added to 384-well plate, and then gradiently diluted compounds were added (starting at a final concentration of 10 μM, 3-fold dilution, 10 doses), followed by adding PIP2: 3PS (Promega, #V1701) and ATP solution (Promega, #V915B) to the plate. After incubation at 25° C. for 1 h, ADP-Glo reagent buffer (Promega, #V9102) was added to each well. The plate was sealed and incubated at 25° C. for 40 min, and then 10 μL of ADP-Glo detection buffer (Promega, #V9102) was added to each well. After incubating at 25° C. for 40 min, the chemiluminescence value was read using an instrument.
The experimental results are shown in the ADP Glo IC50 column in Table 2.

SMILES | pIC50 (T47D cells; Homo sapiens, 168 h) | pIC50 (T47D cells) | pIC50 [1] | pIC50 (MCF-10A cells; Homo sapiens, 144 h) | pIC50 (MCF-10A cells)
Cc1cc([C@@H](C)Nc2ccccc2C(O)C(F)(F)F)c2oc(-c3ccc(F)cc3)cc(=O)c2c1 (single isomer, unassigned) [Compound 68] |  | 5.30 to 6.00 |  |  | < 5.30
Cc1cc([C@@H](C)Nc2ccccc2C(=O)O)c2nc(N3CCC(C)(C)CC3)[nH]c(=O)c2c1 [Compound 4, (R)-2-((1-(2-(4,4-dimethylpiperidin-1-yl)-6-dimethyl-4-oxo-3,4-dihydroquinazolin-8-yl)ethyl)amino)benzoic Acid] |  |  | 5.30 to 6.00 |  | 
Cc1cc([C@@H](C)N[S@+]([O-])C(C)(C)C)c2nc(N3CCC(C)(C)CC3)n(C)c(=O)c2c1 [Compound 5] |  |  | 5.30 to 6.00 |  | 
Cc1cc([C@@H](C)Nc2ccccc2C(=O)O)c2nc(-c3c(C)noc3C)n(C)c(=O)c2c1 [Compound 51] | < 5.30 |  |  | < 5.30 | 
Cc1cc([C@@H](C)Nc2ccc(Cl)nc2C(=O)O)c2nc(-c3ccc(C(F)(F)F)cn3)n(C)c(=O)c2c1 [Compound 75] | 5.30 to 6.00 |  |  | < 5.30 | 
C[C@@H](Nc1ccccc1C(=O)O)c1cc(F)cc2c(=O)n(C)c(-c3ccc(F)cn3)nc12 [Compound 76] | 5.30 to 6.00 |  |  | < 5.30 | 
Cc1cc([C@@H](C)Nc2cc(F)ccc2C(=O)O)c2nc(-c3ccc(F)cn3)n(C)c(=O)c2c1 [Compound 78] | 5.30 to 6.00 |  |  | < 5.30 | 
C[C@@H](Nc1cccc(F)c1C(=O)O)c1cc(F)cc2c(=O)n(C)c(-c3ccccc3)nc12 [Compound 79] | 5.30 to 6.00 |  |  | < 5.30 | 
C[C@@H](Nc1cc(F)ccc1C(=O)O)c1cc(F)cc2c(=O)n(C)c(-c3ccc(F)cn3)nc12 [Compound 81] | < 5.30 |  |  | < 5.30 | 
C[C@@H](Nc1sccc1C(=O)O)c1cc(F)cc2c(=O)n(C)c(-c3ccc(F)cn3)nc12 [Compound 84] | < 5.30 |  |  | < 5.30 | 
C[C@@H](Nc1c(C(=O)O)cnn1C)c1cc(Cl)cc2c(=O)n(C)c(-c3ccc(F)cn3)nc12 [Compound 86] | < 5.30 |  |  | < 5.30 | 
[2H]C([2H])([2H])n1c(-c2ccc(F)cn2)nc2c([C@@H](C)Nc3ccc(Cl)cc3C(=O)O)cc(F)cc2c1=O [Compound 88, (R)-5-chloro-2-((1-(6-fluoro-2-(5-fluoropyridin-2-yl)-3-deuteromethyl-4-oxo-3,4-dihydroquinazolin-8-yl)ethyl)amino)benzoic Acid] | < 5.30 |  |  | < 5.30 | 
[2H]C([2H])([2H])n1c(-c2cccc(F)c2)nc2c([C@@H](C)Nc3ccc(Cl)nc3C(=O)O)cc(F)cc2c1=O [Compound 89] | 5.30 to 6.00 |  |  | < 5.30 | 
CCSc1nc2c([C@@H](C)Nc3ccc(Cl)nc3C(=O)OC)cc(F)cc2c(=O)n1C [Compound 105] | 5.30 to 6.00 |  |  | < 5.30 | 
Cc1cc([C@@H](C)N[S@+]([O-])C(C)(C)C)c2nc(-c3ccncc3)n(C)c(=O)c2c1 [Compound 108] | < 5.30 |  |  | < 5.30 | 
COc1ccc(-c2nc3c([C@@H](C)Nc4ccc(Cl)nc4C(=O)O)cc(C)cc3c(=O)n2C)cc1 [Compound 111] |  |  |  | < 5.30 | 
COc1ccc(-c2nc3c([C@@H](C)Nc4ccc(Cl)nc4C(N)=O)cc(C)cc3c(=O)n2C)cc1 [Compound 112] |  |  |  | 5.30 to 6.00 | 
COC(=O)c1nc(Cl)ccc1N[C@H](C)c1cc(C)cc2c(=O)nc(-c3ccc(C(F)(F)F)nc3)n(C)c12 [Compound 113] |  |  |  | < 5.30 | 
COC(=O)c1nc(Cl)ccc1N[C@@H](C)c1cc(C)cc2c(=O)nc(-c3ccc(C(F)(F)F)nc3)n(C)c12 [Compound 114] |  |  |  | < 5.30 | 
Cc1cc(C(C)N2CCc3ccccc32)c2oc(-c3ccc(F)cc3F)cc(=O)c2c1 (stereo not shown) [Compound 116, 2-(2,4-difluorophenyl)-8-(1-(indolin-1-yl)ethyl)-6-methyl-4H-benzopyran-4-one] | < 5.30 |  |  | < 5.30 | 

Now from value to molecule, other results behind:

pIC50 (T47D cells; Homo sapiens, 168 h) | pIC50 (T47D cells) | pIC50 [1] | SMILES | pIC50 (MCF-10A cells; Homo sapiens, 144 h) | pIC50 (MCF-10A cells)
5.30 to 6.00 |  |  | Cc1cc([C@@H](C)Nc2ccccc2C(O)C(F)(F)F)c2oc(-c3ccc(F)cc3)cc(=O)c2c1 (single isomer, unassigned) [Compound 67] | < 5.30 | 
5.30 to 6.00 |  |  | Cc1cc([C@@H](C)Nc2ccccc2C(=NO)C(F)(F)F)c2oc(-c3ccc(F)cc3F)cc(=O)c2c1 (stereo in doubt) [Compound 64, (R,E)-2-(2,4-difluorophenyl)-6-methyl-8-(1-((2-(2,2,2-trifluoro-1-(hydroxyimino)ethyl)phenyl)amino)ethyl)-4H-chromen-4-one] | < 5.30 | 
> 6.00 |  |  | Cc1cc([C@@H](C)Nc2ccccc2C(N)=O)c2oc(-c3ccc(F)cc3F)cc(=O)c2c1 [Compound 47] | < 5.30 | 
5.30 to 6.00 |  |  | Cc1cc([C@@H](C)Nc2ccccc2C(=O)OC(C)(C)C)c2nc(-c3c(C)noc3C)n(C)c(=O)c2c1 [Compound 49] | < 5.30 | 
5.30 to 6.00 |  |  | Cc1cc([C@@H](C)Nc2ccc(Cl)nc2C(=O)OC(C)(C)C)c2nc(-c3c(C)noc3C)n(C)c(=O)c2c1 [Compound 50] | < 5.30 | 
5.30 to 6.00 |  |  | COC(=O)c1occc1N[C@H](C)c1cc(C)cc2c(=O)cc(-c3ccc(F)cc3F)oc12 [Compound 63, methyl (R)-3-((1-(2-(2,4-difluorophenyl)-6-methyl-4-oxo-4H-chromen-8-yl)ethyl)amino)furan-2-carboxylate] | < 5.30 | 
> 6.00 |  |  | C[C@@H](Nc1ccc(Cl)nc1C(=O)O)c1cc(Cl)cc2c(=O)n(C)c(-c3ccc(F)cn3)nc12 [Compound 83] | < 5.30 | 
> 6.00 |  |  | Cc1cc([C@@H](C)Nc2ccc(F)cc2C(=O)O)c2nc(-c3ccc(F)cn3)n(C)c(=O)c2c1 [Compound 87] | < 5.30 | 
> 6.00 |  |  | Cc1cc([C@@H](C)Nc2ccc(Cl)cc2C(=O)O)c2nc(-c3ccc(F)cn3)n(C)c(=O)c2c1 [Compound 90] | < 5.30 | 
> 6.00 |  |  | [2H]C([2H])([2H])n1c(-c2ccc(F)cn2)nc2c([C@@H](C)Nc3ccc(F)cc3C(=O)O)cc(F)cc2c1=O [Compound 91] | < 5.30 | 
> 6.00 |  |  | [2H]C([2H])([2H])n1c(-c2cccc(F)c2)nc2c([C@@H](C)Nc3ccc(Cl)nc3C(=O)O)cc(C)cc2c1=O [Compound 93] | < 5.30 | 
> 6.00 |  |  | [2H]C([2H])([2H])n1c(-c2ccc(C(F)(F)F)nc2)nc2c([C@@H](C)Nc3ccc(Cl)nc3C(=O)O)cc(C)cc2c1=O [Compound 94] | < 5.30 | 
> 6.00 |  |  | C[C@@H](Nc1ccc(Cl)nc1C(=O)O)c1cc(Cl)cc2c(=O)n(C)c(-c3ncc(Cl)cn3)nc12 [Compound 97] | 5.30 to 6.00 | 
> 6.00 |  |  | C[C@@H](Nc1ccc(Cl)nc1C(=O)O)c1cc(Cl)cc2c(=O)n(C)c(-c3ncccn3)nc12 [Compound 98] | < 5.30 | 
> 6.00 |  |  | COC(=O)c1nc(Cl)ccc1NC(C)c1cc(C)cc2c(=O)n(C)c(-c3ccc(OC)cc3)nc12 (stereo not shown) [Compound 106] | < 5.30 | 
> 6.00 |  |  | COc1ccc(-c2nc3c(C(C)N)cc(C)cc3c(=O)n2C)cc1 (stereo not shown) [Compound 107] | < 5.30 | 
> 6.00 |  |  | Cc1cc([C@@H](C)Nc2ccc(Cl)nc2C(=O)O)c2nc(-c3ccncc3)n(C)c(=O)c2c1 [Compound 109, (R)-6-chloro-3-((1-(3,6-dimethyl-4-oxo-2-(pyridin-4-yl)-3,4-dihydroquinazolin-8-yl)ethyl)amino)pyridinecarboxylic Acid] | < 5.30 | 
> 6.00 |  |  | Cc1cc([C@@H](C)Nc2ccc(Cl)nc2C(N)=O)c2nc(-c3ccncc3)n(C)c(=O)c2c1 [Compound 110] | < 5.30 | 

From patent US20260015341A1, “PI3K INHIBITOR, PREPARATION METHOD THEREFOR, AND USE THEREOF” (HINOVA PHARMACEUTICALS INC., priority 2022, published 2026)
